In data set [1] the test system is L. amazonensis promastigotes. Put plainly: Promastigote assay (MTT). The format is cell-based, Leishmania amazonensis. The conditions noted are these: after 48 h of culture (table title); for IC50: Leishmania amazonensis. As for the experimental part:
Leishmania amazonensis (MHOM/BR/77/LTB0016) were regularly isolated from infected mice and maintained in culture as promastigotes through weekly passages in Schneider’s medium (Sigma Aldrich, St. Louis, MO, USA) supplemented with 10% (v/v) heat-inactivated fetal calf serum, penicillin (100 UI/mL), and streptomycin (100 µg/mL) at 299K. Parasites were maintained until the 10th passage. The Animal Ethics Committee of the Oswaldo Cruz Foundation (license number L026/2015) approved this study.
Promastigotes of L. amazonensis (1 × 10^6 promastigotes/mL) in the 4th day on culture in the conditions described above were incubated with the chalcones serially diluted in culture medium (0.032% v/v DMSO at the highest concentration tested) on a 96-well cell culture plate (TPP™ test plate, Switzerland). The assayed concentrations ranged from 50 to 1.56 µM for all chalcone-thiosemicarbazones (5a–g) and for pentamidine (Sigma Aldrich, St. Louis, MO, USA). […] All compounds were analyzed in at least three experiments performed in triplicate. Pentamidine was used as the reference drug and diluted in the same concentrations used for 5a–g. The vehicle (DMSO) had no effect on the parasites.
The antileishmanial activity was evaluated by adding 22 µL of 3-(4,5-dimethylthiazol-2-yl)-2-5diphenyltetrazolium bromide (MTT) at 5 mg/mL (Sigma Aldrich, St. Louis, MO, USA) to each well. After 2 h, 80 µL of DMSO was added and the optical density was determined at a wavelength of 570 nm in a microplate reader (µQuant Bio-Tek Instruments®, Winooski). The assays were carried out in triplicate in 96-well plates (Costar, New York, USA). The inhibition percentage was estimated by the comparison with the non-treated control. The values for the inhibitory concentration for 50% of the promastigotes (IC50) were calculated by a sigmoidal model.

For data set [2] the following is noted: constant of substituent 4-X; cited from earlier work.
For data set [3], the system named is L. amazonensis axenic amastigotes. The data set can be described thus: Axenic amastigotes assay (resazurin). The format is cell-based. The conditions noted are these: Leishmania amazonensis, 72 h of culture, table title says 48 h. How it is done: Promastigote forms of L. amazonensis (MHOM/BR/77/LTB0016) were grown to a stationary phase, washed once in phosphate buffer solution (PBS) (pH = 7.4) and adjusted to 5 × 10^6 parasites/mL in Schneider’s medium, supplemented with 20% fetal bovine solution (FBS) pH = 5.5 and maintained at 305K. After 5 days of cultivation, the rounded forms without free flagella were obtained and, after heat shock, were used in the appropriate assays. To evaluate the activity against axenic amastigotes, the parasites were incubated with increasing concentrations of the prototypes (diluted in DMSO) for 72 h at 305K. These assays were performed in triplicate in 96-well flat bottom plates (Falcon Co, Franklin Lakes, USA). The leishmanicidal activity was evaluated by adding 22 μl of resazurin to each well. After 4 h, the cell viability was measured as described above. Calculation of the IC50 values was determined in relation to the control by a sigmoidal model using GraphPad Prism 6.0 software.
A general note: Alamar Blue is a resazurin reagent that responds to reducing activity.

For data set [4], the system named is murine peritoneal macrophages. The data set can be described thus: Macrophage cytotoxicity (resazurin). Format: cell-based. How it is done: Peritoneal macrophages from albino laboratory-bred strain (BALB/c) mice were obtained in RPMI 1640 medium at pH 7.2 (Gibco, New York, NY, USA) supplemented with 10% (v/v) heat-inactivated fetal bovine serum, 100 U/mL penicillin and 0.1 mg/mL of streptomycin and distributed (1 × 10^6 macrophages/well) in triplicate in 96-well plates (Falcon Co., Franklin Lakes, USA) and incubated for 1 h in a 5% CO2 atmosphere incubator at 310K. The supernatant was removed, and the compounds were added to the plate at concentrations from 10 µM to 50 µM. Next, the cultures were incubated for 48 h in a CO2 incubator at 310K. After incubation, the supernatant was removed and a resazurin solution (50 µM) was added to each well and incubated at 310K for 4 h. Furthermore, the fluorescence was measured using a wavelength of 560 nm for excitation and 590 nm for detection (Molecular Devices, Silicon Valley, USA). Results were expressed as the percentage of viable cells compared to the control cells treated with the highest DMSO dose used to dissolve the drugs. The 50% cytotoxic concentration (CC50) was calculated using GraphPad Prism 6.0 software (GraphPad Company, San Diego, CA, USA).

In data set [5] the test system is L. amazonensis intracellular amastigotes. Put plainly: Intracellular amastigotes assay in infected macrophages. Format: cell-based, Leishmania amazonensis. The following applies: for IC50: L. amazonensis-infected murine peritoneal macrophages, 48 h of culture; for Selectivity Index (SI): SI = LD50/IC50 intracellular amastigotes. How it is done:
Peritoneal macrophages were obtained BALB/c mice with cold Roswell Park Memorial Institute (RPMI) 1640 medium (Sigma Aldrich, St. Louis, MO, USA) supplemented as above. The cell suspension was adjusted to 1 × 10^6 macrophage/mL and incubated in a LAB-TEK 8-chamber slide (Nunc, Roskilde, Denmark) at 310K and 5% CO2 for 1 h. Non-adherent cells were removed and stationary-phase L. amazonensis promastigotes were added at a 3:1 parasite/macrophage ratio. The cultures were incubated for a further 4 h, and free parasites were removed. The chambers were washed, and the monolayers were incubated with the compounds for 48 h. Infected macrophages incubated only in the culture medium were used as controls to compare with the infected treated macrophages. […] The cultures were fixed in methanol and stained with the hematological system Instant Prov (Newprov®, Curitiba, Brazil). The slides were examined by light microscopy, and the number of infected macrophages and the mean number of parasites per macrophage were determined in 100 cells counted. The experiments were performed twice in triplicate. The percentage of infected macrophages was calculated by dividing the number of infected macrophages by the total number of macrophages (infected and uninfected) counted on the slides, multiplied by 100. To determine the infection index, the percentage of infected macrophages was multiplied by the mean number of parasites per macrophage. The percentage inhibition of infection was calculated by multiplying the difference between the infection index of the control and the compound by 100 and dividing by the infection index (IF) of the control using the Equation (1):IF = % infected cells × amastigotes number/total number of macrophages(1) The IC50 ± SD (SD: standard deviation) values were obtained by a sigmoidal model using Origin 6.0 with statistical error limits up to 10%. All tests were conducted in duplicate for each concentration, and two independent assays were performed.

Setting [6] is: Leishmania amazonensis, Peritoneal macrophage, in Mus musculus, 48 h.

Bounds are passed on as bounds.

One may read the melting point as the temperature, or range, at which the solid turns liquid. Take `NC(=S)N/N=C(\C=C\c1ccc([N+](=O)[O-])cc1)c1ccccc1` [Compound 5g, (1E,2E)-3-(4′-nitrophenyl)-1-phenylprop-2-en-1-one thiosemicarbazone]: the melting point lay within 188 to 190 °C. Also, in data set [1], the “Promastigotes IC50” value is “no significant activity”. In addition, in data set [2], the “Hammett constant σp” value was 0.81, the “Hansh constant π (lipophilicity)” value is −0.28, the “Taft constant Es” value is −1.01 and the “molecular refractivity MR” value is reported as 0.74.

By IC50 is commonly meant the midpoint of a concentration-inhibition curve. A lower IC50 goes with greater potency. In the case of `NC(=S)NN=C(C=Cc1ccc(F)cc1)c1ccccc1` [Compound 5d, (1E,2E)-3-(4′-fluorphenyl)-1-phenylprop-2-en-1-one thiosemicarbazone], the 50% inhibitory concentration (IC50) in data set [1] was 13.1 ± 1.85 µM; in data set [3] it was 5.57 ± 1.15 µM; in data set [5] it was above 3.13 µM; in data set [5] (setting [6]), 3.4 to 5.95 µM. In addition, in data set [4] (BALB/c, mouse, 48 h, pH 7.2), the “Macrophages LD50” value is on record as 35.47 ± 1.38 µM. Further, the “Hammett constant σp” value in data set [2] was 0.15. For the same molecule, the “Hansh constant π (lipophilicity)” value in data set [2] was 0.14. Also, in data set [2], the “Taft constant Es” value is −0.46. In addition, the “molecular refractivity MR” value in data set [2] is 0.10.

Consider `N#Cc1ccc(/C=C/C(=N\NC(N)=S)c2ccccc2)cc1` [Compound 5c, (1E,2E)-3-(4′-cyanophenyl)-1-phenylprop-2-en-1-one thiosemicarbazone], for which the melting point lay in the range of 195 to 196 °C. For the same molecule, the “Promastigotes IC50” value in data set [1] was “no significant activity”. In data set [2], the “Hammett constant σp” value is on record as 0.71, the “Hansh constant π (lipophilicity)” value was −0.57, the “Taft constant Es” value was −0.51 and the “molecular refractivity MR” value is recorded as 0.63.

Consider `N=C(N)c1ccc(OCCCCCOc2ccc(C(=N)N)cc2)cc1` [Pentamidine, pentamidine, reference compound], for which the IC50 in data set [1] came to 4.9 ± 0.6 µM; in data set [3], 12.3 ± 1.17 µM; in data set [5] (Leishmania amazonensis, Peritoneal macrophage), 11.1 ± 1.98 µM. Also, in data set [4] (murine peritoneal macrophages, 48 h of culture), the “Macrophages LD50” value came to 25.85 ± 4.06 µM. For the same molecule, in data set [5], the “Selectivity Index (SI)” value worked out at 2.32.

As to `NC(=S)N/N=C(\C=C\c1ccc(Br)cc1)c1ccccc1` [Compound 5f, (1E,2E)-3-(4′-bromophenyl)-1-phenylprop-2-en-1-one thiosemicarbazone], in data set [1], the 50% inhibitory concentration (IC50) was found to be 12.5 ± 0.99 µM. In data set [3], this molecule gave an IC50 of 4.24 ± 1.07 µM. Further, in data set [4] (BALB/c, mouse, 48 h, pH 7.2), the “Macrophages LD50” value was 44.24 ± 4.21 µM. Besides, in data set [2], the “Hammett constant σp” value is 0.26, the “Hansh constant π (lipophilicity)” value is on record as 0.86, the “Taft constant Es” value is recorded as −1.16 and the “molecular refractivity MR” value is recorded as 0.89.

`Cc1ccc(/C=C/C(=N\NC(N)=S)c2ccccc2)cc1` [Compound 5b, (1E,2E)-3-(4′-methylphenyl)-1-phenylprop-2-en-1-one thiosemicarbazone]: inhibition in data set [1] was half-maximal at 14.8 ± 1.92 µM (IC50). In addition, the IC50 in data set [3] is 7.08 ± 1.03 µM. For the same molecule, in data set [4] (BALB/c, mouse, 48 h, pH 7.2), the “Macrophages LD50” value worked out at 56.35 ± 0.78 µM. Moreover, in data set [2], the “Hammett constant σp” value is −0.14, the “Hansh constant π (lipophilicity)” value was 0.56, the “Taft constant Es” value was −0.25 and the “molecular refractivity MR” value is recorded as 0.57. In data set [5] (setting [6]), it took 5.95 ± 0.61 µM to reach half-maximal inhibition (IC50). The “Selectivity Index (SI)” value in data set [5] amounted to 9.47.

On to `NC(=S)N/N=C(\C=C\c1ccccc1)c1ccccc1` [Compound 5a, (1E,2E)-3-(phenyl)-1-phenylprop-2-en-1-one thiosemicarbazone], for which the IC50 in data set [1] turned out to be 14.7 ± 0.31 µM. The molecule also registered an IC50 in data set [3] of 6.88 ± 1.09 µM. Besides, the “Macrophages LD50” value in data set [4] (BALB/c, mouse, 48 h, pH 7.2) was 40.98 ± 1.12 µM. In data set [2], the “Hammett constant σp” value is recorded as 0.00, the “Hansh constant π (lipophilicity)” value is listed as 0.00, the “Taft constant Es” value is reported as 0.00 and the “molecular refractivity MR” value was 0.00.
